Data from the supplement of paper PMC11451515.

Tested on: P12-Ichikawa
Assay: cell viability relative to DMSO control; higher = less cytotoxic
Settings: 48 h
Procedure, shortened: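 NOMO1, SEM and P12-Ichikawa leukemia cells spent at least four passages adapting to each medium before use. They were seeded at 500 cells/well (NOMO1, SEM) or 1000 cells/well (P12-Ichikawa) in 5 μl in 1536-well plates and pin-dosed with library compounds in DMSO at 11 threefold steps from 47 μM down to 0.79 nM. After 48 h at 37°C, CellTiter-Glo One luminescence was read. Viability is reported as a percentage of the DMSO wells on each plate, with cell-free wells as background.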

[1] = HPLM + 10% dialyzed FBS, 0.000781 µM
[2] = HPLM + 10% dialyzed FBS, 0.00234 µM
[3] = HPLM + 10% dialyzed FBS, 0.00702 µM
[4] = HPLM + 10% dialyzed FBS, 0.0211 µM
[5] = HPLM + 10% dialyzed FBS, 0.0632 µM
[6] = HPLM + 10% dialyzed FBS, 0.19 µM
[7] = HPLM + 10% dialyzed FBS, 0.569 µM
[8] = HPLM + 10% dialyzed FBS, 1.71 µM
[9] = HPLM + 10% dialyzed FBS, 5.12 µM
[10] = HPLM + 10% dialyzed FBS, 15.4 µM
[11] = HPLM + 10% dialyzed FBS, 46.1 µM
[12] = RPMI 5 mM glucose + 10% FBS, 0.000781 µM
[13] = RPMI 5 mM glucose + 10% FBS, 0.00234 µM
[14] = RPMI 5 mM glucose + 10% FBS, 0.00702 µM
[15] = RPMI 5 mM glucose + 10% FBS, 0.0211 µM
[16] = RPMI 5 mM glucose + 10% FBS, 0.0632 µM
[17] = RPMI 5 mM glucose + 10% FBS, 0.19 µM
[18] = RPMI 5 mM glucose + 10% FBS, 0.569 µM
[19] = RPMI 5 mM glucose + 10% FBS, 1.71 µM
[20] = RPMI 5 mM glucose + 10% FBS, 5.12 µM
[21] = RPMI 5 mM glucose + 10% FBS, 15.4 µM
[22] = RPMI 5 mM glucose + 10% FBS, 46.1 µM
[23] = RPMI 5 mM glucose + 10% dialyzed FBS, 0.000781 µM
[24] = RPMI 5 mM glucose + 10% dialyzed FBS, 0.00234 µM
[25] = RPMI 5 mM glucose + 10% dialyzed FBS, 0.00702 µM
[26] = RPMI 5 mM glucose + 10% dialyzed FBS, 0.0211 µM
[27] = RPMI 5 mM glucose + 10% dialyzed FBS, 0.0632 µM
[28] = RPMI 5 mM glucose + 10% dialyzed FBS, 0.19 µM
[29] = RPMI 5 mM glucose + 10% dialyzed FBS, 0.569 µM
[30] = RPMI 5 mM glucose + 10% dialyzed FBS, 1.71 µM
[31] = RPMI 5 mM glucose + 10% dialyzed FBS, 5.12 µM
[32] = RPMI 5 mM glucose + 10% dialyzed FBS, 15.4 µM
[33] = RPMI 5 mM glucose + 10% dialyzed FBS, 46.1 µM

| Compound | cell viability [1] [%] | cell viability [2] [%] | cell viability [3] [%] | cell viability [4] [%] | cell viability [5] [%] | cell viability [6] [%] | cell viability [7] [%] | cell viability [8] [%] | cell viability [9] [%] | cell viability [10] [%] | cell viability [11] [%] | cell viability [12] [%] | cell viability [13] [%] | cell viability [14] [%] | cell viability [15] [%] | cell viability [16] [%] | cell viability [17] [%] | cell viability [18] [%] | cell viability [19] [%] | cell viability [20] [%] | cell viability [21] [%] | cell viability [22] [%] | cell viability [23] [%] | cell viability [24] [%] | cell viability [25] [%] | cell viability [26] [%] | cell viability [27] [%] | cell viability [28] [%] | cell viability [29] [%] | cell viability [30] [%] | cell viability [31] [%] | cell viability [32] [%] | cell viability [33] [%] |
| --- | --- | --- | --- | --- | --- | --- | --- | --- | --- | --- | --- | --- | --- | --- | --- | --- | --- | --- | --- | --- | --- | --- | --- | --- | --- | --- | --- | --- | --- | --- | --- | --- | --- |
| CC1=CC=CC=C1CN2C(=O)C/3=C(/CCN(CC4=CC=CC=C4)C3)N\5CC\N=C25 | 124 | 120 | 119 | 119 | 119 | 112 | 107 | 106 | 81.9 | 53.4 | 57.5 | 129 | 109 | 117 | 119 | 127 | 114 | 118 | 122 | 79.8 | 45.7 | 45.2 | – | – | – | – | – | – | – | – | – | – | – |
| CC[C@H]1/C=C\C=C/C[C@@H](C)[C@H](O)[C@@](C)(O)C(=O)[C@@H](C)[C@H](O)[C@@H](C)C(=O)[C@@H](C)[C@H](O)[C@@H](C)/C=C/C(=O)O[C@@H]2[C@H](C)[C@H](CC1)O[C@]1(CC[C@H](C)[C@H](C[C@@H](C)O)O1)[C@H]2C | 91.4 | 102 | 98.8 | 102 | 89.5 | 107 | 109 | 67.4 | 57.1 | 41.4 | 4.23 | 90.5 | 96.7 | 75 | 110 | 94.1 | 109 | 108 | 64.4 | 58.9 | 53.7 | 5.47 | 84.9 | 102 | 92.7 | 89.9 | 101 | 99.8 | 92.2 | 59.1 | 45.9 | 41.8 | 5.21 |
| O=C(CO)N1CCC(c2n[nH]c(-c3ccc(Cl)cc3)c2-c2ccncn2)CC1 | 119 | 104 | 113 | 112 | 113 | 109 | 105 | 100 | 97.7 | 55.7 | 68.4 | 117 | 112 | 118 | 122 | 114 | 113 | 114 | 110 | 87.8 | 24 | 58.5 | 122 | 116 | 114 | 116 | 117 | 114 | 113 | 101 | 97.7 | 21.7 | 55.4 |
| Cc1ncc(OC[C@@]2(c3cccc(F)c3)C[C@H]2C(=O)Nc2ccc(F)cn2)c(C)n1 | 104 | 101 | 104 | 104 | 105 | 111 | 114 | 102 | 102 | 103 | 13.4 | 107 | 107 | 108 | 112 | 110 | 106 | 106 | 107 | 107 | 106 | 97.3 | 111 | 108 | 119 | 113 | 108 | 121 | 116 | 115 | 117 | 106 | 96.2 |
